Reference: ChEMBL document CHEMBL3885881, “DrugMatrix”

Organism: Rattus norvegicus
Experiment: DrugMatrix - Regimen: Daily Repeat
Type: toxicity, organism-based, Sprague-Dawley
Parameters: regimen Daily Repeat, gender Male, age 6-8 weeks
Conditions: in vivo, po, route oral GAVAGE, […]; for ABSOLUTE BASOPHIL / ABSOLUTE EOSINOPHIL / ABSOLUTE LYMPHOCYTE / ABSOLUTE MONOCYTE / ABSOLUTE SEGMENTED NEUTROPHIL / BASOPHIL / EOSINOPHIL / ERYTHROCYTE COUNT / HEMATOCRIT / HEMOGLOBIN / LEUKOCYTE COUNT / LYMPHOCYTE / MEAN CORPUSCULAR HEMOGLOBIN / MEAN CORPUSCULAR HEMOGLOBIN CONCENTRATION / MEAN CORPUSCULAR VOLUME / MONOCYTE / NEUTROPHIL / NUCLEATED RED BLOOD CELLS / PLATELET COUNT: tissue Blood; for ALANINE AMINOTRANSFERASE / ALBUMIN / ALKALINE PHOSPHATASE / ASPARTATE AMINOTRANSFERASE / BLOOD UREA NITROGEN / CARBON DIOXIDE / CHLORIDE / CHOLESTEROL / CREATINE PHOSPHOKINASE / CREATININE / GLUCOSE / LACTATE DEHYDROGENASE / LIPASE / PHOSPHORUS / POTASSIUM / SODIUM / TOTAL BILIRUBIN / TOTAL PROTEIN / URIC ACID: tissue Plasma
[1] = 0 mg/kg, 72 h, dose level Control, time 3 day
[2] = 0 mg/kg, 120 h, dose level Control, time 5 day
[3] = 10 mg/kg, 72 h, dose level Low, time 3 day

With c1ccc2[nH]c(-c3cscn3)nc2c1 [THIABENDAZOLE] the “ABSOLUTE BASOPHIL” value [1] was 0 CELLS/uL, the “ABSOLUTE EOSINOPHIL” value [1] was 13.67 CELLS/uL and the “ABSOLUTE LYMPHOCYTE” value [1] was 10069.5 CELLS/uL. For the same compound, the “ABSOLUTE MONOCYTE” value [1] was 50 CELLS/uL, the “ABSOLUTE SEGMENTED NEUTROPHIL” value [1] was 516.83 CELLS/uL and the BASOPHIL [1] was 0%. For the same compound, the EOSINOPHIL [1] was 0.17%, the “ERYTHROCYTE COUNT” value [1] was 5.44 x10E6/uL and the HEMATOCRIT [1] was 33.88%. The HEMOGLOBIN [1] was 13.23 G/DL, the “LEUKOCYTE COUNT” value [1] was 10.65 x10E3/uL and the LYMPHOCYTE [1] was 94.67%. For the same compound, the “MEAN CORPUSCULAR HEMOGLOBIN” value [1] was 24.37 pg, the “MEAN CORPUSCULAR HEMOGLOBIN CONCENTRATION” value [1] was 39.05 G/DL and the “MEAN CORPUSCULAR VOLUME” value [1] was 62.38 fL. For the same compound, the MONOCYTE [1] was 0.67%, the NEUTROPHIL [1] was 4.5% and the “NUCLEATED RED BLOOD CELLS” value [1] was 0.33 /100WBC. For the same compound, the “PLATELET COUNT” value [1] was 414.5 x10E3/uL, the “ALANINE AMINOTRANSFERASE” value [1] was 72 u/L and the ALBUMIN [1] was 3.75 G/DL. For the same compound, the “ALKALINE PHOSPHATASE” value [1] was 375 u/L, the “ASPARTATE AMINOTRANSFERASE” value [1] was 87.5 u/L and the “BLOOD UREA NITROGEN” value [1] was 14 mg/dL. The “CARBON DIOXIDE” value [1] was 27.5 mmol/L, the CHLORIDE [1] was 95.83 MEQ/L and the CHOLESTEROL [1] was 68.5 mg/dL. For the same compound, the “CREATINE PHOSPHOKINASE” value [1] was 284.33 u/L, the CREATININE [1] was 0.16 mg/dL and the GLUCOSE [1] was 156.67 mg/dL. The “LACTATE DEHYDROGENASE” value [1] was 101.83 u/L, the LIPASE [1] was 9.67 u/L and the PHOSPHORUS [1] was 10.33 mg/dL. The POTASSIUM [1] was 5.22 MEQ/L, the SODIUM [1] was 137.67 MEQ/L and the “TOTAL BILIRUBIN” value [1] was 0.13 mg/dL. The “TOTAL PROTEIN” value [1] was 5.43 G/DL, the “URIC ACID” value [1] was 0.8 mg/dL and the “ABSOLUTE BASOPHIL” value [2] was 0 CELLS/uL. For the same compound, the “ABSOLUTE EOSINOPHIL” value [2] was 20.67 CELLS/uL, the “ABSOLUTE LYMPHOCYTE” value [2] was 11518.33 CELLS/uL and the “ABSOLUTE MONOCYTE” value [2] was 47 CELLS/uL. For the same compound, the “ABSOLUTE SEGMENTED NEUTROPHIL” value [2] was 614 CELLS/uL, the BASOPHIL [2] was 0% and the EOSINOPHIL [2] was 0.17%. The “ERYTHROCYTE COUNT” value [2] was 5.61 x10E6/uL, the HEMATOCRIT [2] was 34.25% and the HEMOGLOBIN [2] was 13.38 G/DL. For the same compound, the “LEUKOCYTE COUNT” value [2] was 12.2 x10E3/uL, the LYMPHOCYTE [2] was 94.33% and the “MEAN CORPUSCULAR HEMOGLOBIN” value [2] was 23.83 pg. The “MEAN CORPUSCULAR HEMOGLOBIN CONCENTRATION” value [2] was 39.08 G/DL, the “MEAN CORPUSCULAR VOLUME” value [2] was 61.03 fL and the MONOCYTE [2] was 0.33%. The NEUTROPHIL [2] was 5.17%, the “NUCLEATED RED BLOOD CELLS” value [2] was 0 /100WBC and the “PLATELET COUNT” value [2] was 941.83 x10E3/uL. The “ALANINE AMINOTRANSFERASE” value [2] was 68.83 u/L, the ALBUMIN [2] was 4.12 G/DL and the “ALKALINE PHOSPHATASE” value [2] was 492.67 u/L. The “ASPARTATE AMINOTRANSFERASE” value [2] was 83.33 u/L, the “BLOOD UREA NITROGEN” value [2] was 14 mg/dL and the “CARBON DIOXIDE” value [2] was 37 mmol/L. For the same compound, the CHLORIDE [2] was 98.67 MEQ/L, the CHOLESTEROL [2] was 56.5 mg/dL and the “CREATINE PHOSPHOKINASE” value [2] was 167.33 u/L. The CREATININE [2] was 0.17 mg/dL, the GLUCOSE [2] was 157.5 mg/dL and the “LACTATE DEHYDROGENASE” value [2] was 104.83 u/L. It also gave an LIPASE [2] of 10 u/L, a PHOSPHORUS [2] of 10.43 mg/dL and a POTASSIUM [2] of 5.46 MEQ/L. The SODIUM [2] was 143.87 MEQ/L, the “TOTAL BILIRUBIN” value [2] was 0.17 mg/dL and the “TOTAL PROTEIN” value [2] was 5.72 G/DL. For the same compound, the “URIC ACID” value [2] was 0.85 mg/dL, the “ABSOLUTE BASOPHIL” value [3] was 0 CELLS/uL and the “ABSOLUTE EOSINOPHIL” value [3] was 0 CELLS/uL. The “ABSOLUTE LYMPHOCYTE” value [3] was 5878.33 CELLS/uL, the “ABSOLUTE MONOCYTE” value [3] was 47.67 CELLS/uL and the “ABSOLUTE SEGMENTED NEUTROPHIL” value [3] was 707.33 CELLS/uL. The BASOPHIL [3] was 0%, the EOSINOPHIL [3] was 0% and the “ERYTHROCYTE COUNT” value [3] was 5.01 x10E6/uL. For the same compound, the HEMATOCRIT [3] was 31.07%, the HEMOGLOBIN [3] was 12.3 G/DL and the “LEUKOCYTE COUNT” value [3] was 6.63 x10E3/uL. For the same compound, the LYMPHOCYTE [3] was 88.67%, the “MEAN CORPUSCULAR HEMOGLOBIN” value [3] was 24.73 pg and the “MEAN CORPUSCULAR HEMOGLOBIN CONCENTRATION” value [3] was 39.77 G/DL. For the same compound, the “MEAN CORPUSCULAR VOLUME” value [3] was 62.1 fL, the MONOCYTE [3] was 0.67% and the NEUTROPHIL [3] was 10.67%. The “NUCLEATED RED BLOOD CELLS” value [3] was 0 /100WBC, the “PLATELET COUNT” value [3] was 848.67 x10E3/uL and the “ALANINE AMINOTRANSFERASE” value [3] was 79.33 u/L. For the same compound, the ALBUMIN [3] was 3.7 G/DL, the “ALKALINE PHOSPHATASE” value [3] was 386.33 u/L and the “ASPARTATE AMINOTRANSFERASE” value [3] was 90.33 u/L. The “BLOOD UREA NITROGEN” value [3] was 13.33 mg/dL, the “CARBON DIOXIDE” value [3] was 25 mmol/L and the CHLORIDE [3] was 96 MEQ/L. The CHOLESTEROL [3] was 74 mg/dL, the “CREATINE PHOSPHOKINASE” value [3] was 147.33 u/L and the CREATININE [3] was 0.21 mg/dL. The GLUCOSE [3] was 143.33 mg/dL, the “LACTATE DEHYDROGENASE” value [3] was 107.33 u/L and the LIPASE [3] was 12.67 u/L. The PHOSPHORUS [3] was 10.57 mg/dL, the POTASSIUM [3] was 5.5 MEQ/L and the SODIUM [3] was 138.4 MEQ/L. For the same compound, the “TOTAL BILIRUBIN” value [3] was 0.13 mg/dL, the “TOTAL PROTEIN” value [3] was 5.33 G/DL and the “URIC ACID” value [3] was 0.87 mg/dL.
